The values below come from patent US20080125432A1 (Devgen NV, priority 2004, published 2008).

Where only a bound is given, the exact number is not on record here.

In one experiment the target is T1, Kv1.5 potassium channel (Homo sapiens, UniProt P22460).
T1 construct: expressed in transfected cells
The experiment in a line: Patch clamp, CHO cells stably expressing the Kv1.5 potassium channel. Conditions: Kv1.5 mediated current. The format is cell-based. Here is the method:
The cDNA coding for Kv1.5 (GenBank Acc. No. M55513) was cloned into the pcDNA6-vector (Invitrogen, Leek, Netherlands). A C-terminal epitope-tag was introduced via PCR. The plasmid was sequenced and subsequently introduced into cells. Clonal cell lines stably expressing the Kv1.5 channel were established. Expression of protein was analyzed by means of immunofluorescence using antibodies directed against the epitope-tag. The functional expression of the ion channels was validated electrophysiologically.
The experiments were performed using CHO cells stably expressing the Kv1.5 potassium channel.
From a HP of −60 mV cells were hyperpolarised for 100 ms to […], followed by a 500 ms depolarisation to +50 mV. The current amplitude at the end of the test pulse to +50 mV was used for the analysis. Pulse cycling rate was 10 s (0.1 Hz).
The application protocol of test compounds is depicted in FIG. 7. The first 14 stimuli were required to achieve steady state of the current amplitude. Unspecific current reduction was calculated and served for correcting procedures during data analysis. After the 14th stimulus the test compound application was started (indicated by an arrow) via teflon and silicone tubings and was assumed to reach the cell after 6 additional stimuli. The perfusion is adjusted by using a defined drop rate of 10 drops per 10-12 s. Up to three concentrations were applied successively to one cell followed by a wash period of 5 minutes. Total number of stimuli was 140. Effect of the test compound was analysed between stimulus nos. 21 and 50 (5 min., long dashed line) for the first concentration, between stimulus nos. 51 and 80 (5 min., short dashed line) for an additional 5 minutes. If the cell was still stable, a wash was added afterwards. Start of test compound application at the given concentration is indicated by arrows. Number of stimuli of each single episode are shown in the protocol of FIG. 7.
The effects of the compounds were investigated at one concentration (2 μM or 1 μM) on the Kv1.5-mediated potassium channel. For comparison, the vehicle control experiments on the Kv1.5 mediated potassium channel. Results are presented in 9Table 9

For another experiment, the target named is T2, human Kv4.3 (Homo sapiens, UniProt Q9UK17).
T2 construct: expressed in transfected cells; host or cells: transgenic C. elegans strain UG1755 (N2 injected with plasmid pGV8, integrated array)
T2 sequence (Q9UK17 1-655): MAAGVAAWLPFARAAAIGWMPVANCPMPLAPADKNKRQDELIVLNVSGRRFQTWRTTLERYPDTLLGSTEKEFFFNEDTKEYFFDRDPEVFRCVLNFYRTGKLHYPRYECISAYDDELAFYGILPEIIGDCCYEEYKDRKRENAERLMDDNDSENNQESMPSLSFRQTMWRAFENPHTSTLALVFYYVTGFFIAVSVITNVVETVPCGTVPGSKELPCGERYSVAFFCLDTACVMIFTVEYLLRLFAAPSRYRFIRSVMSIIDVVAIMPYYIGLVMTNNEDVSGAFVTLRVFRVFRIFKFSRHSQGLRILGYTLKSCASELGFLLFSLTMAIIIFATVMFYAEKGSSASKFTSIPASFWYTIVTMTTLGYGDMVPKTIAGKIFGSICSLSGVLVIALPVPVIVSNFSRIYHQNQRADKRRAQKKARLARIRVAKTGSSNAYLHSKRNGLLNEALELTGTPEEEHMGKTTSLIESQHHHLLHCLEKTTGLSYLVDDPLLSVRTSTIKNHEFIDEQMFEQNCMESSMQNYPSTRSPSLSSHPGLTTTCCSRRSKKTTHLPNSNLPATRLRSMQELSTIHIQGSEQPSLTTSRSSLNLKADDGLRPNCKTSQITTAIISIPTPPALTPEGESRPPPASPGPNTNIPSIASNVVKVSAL
The experiment in a line: C. elegans based high-throughput screen for Kv4.3 modulators (pharynx pumping, Calcein AM uptake), transgenic strain UG1755. To be noted: for Ratio N2/Kv4.3: EC50 on N2 divided by EC50 on the Kv4.3 expressing strain, cut-off 1.8; for EC50: transgenic strain UG1755 expressing human Kv4.3, read-out: EC50 (μM) Kv4.3 worm. It is filed as in vivo. The source says:
A C. elegans based high-throughput screen for Kv4.3 modulators has been used to establish an in vivo SAR (structure-activity relationships: the effect of chemical structure on biological activity) on Kv4.3 for the compounds according to the present invention.
This assay has employed a stable transgenic C. elegans strain that functionally expressed human Kv4.3 in the pharynx and a visible selection GFP maker in body-wall muscle.
The pharynx is the feeding organ of C. elegans and contracts rhythmically 3-4 times per second. The pharynx contraction is controlled by the nervous system via action potentials similar to the human myocyte and can thus be used to study human ion channel physiology in vivo in C. elegans.
Introducing the human Kv4.3 channel into the C. elegans pharynx influences the C. elegans action potential in a characteristic fashion. The additional number of potassium channels increases potassium ion efflux, enhances re-polarization and thereby shortens the action potential duration. […] The shortened action potentials of the C. elegans pharynx resulting from expression of human Kv4.3, changes the pharynx contraction-relaxation cycle and consequently reduces the pumping/feeding in these transgenic animals. This change of pumping is an end-point amenable to high-throughput screening technology. The pumping end-point can be technically translated into a high-throughput read-out by the use of a pro-fluorescent dye. The pro-fluorescent dye is taken up by C. elegans depending on its pumping activity and converted into a fluorescent dye by enzymes located in its intestines. After a defined incubation period, the change of fluorescence intensity in the intestine can be measured with a plate reader.
The screening of the compounds according to the present invention has been performed in the C. elegans based high-throughput screen for Kv4.3 modulators described above. The method for testing the activity on human Kv4.3 of the compounds according to the invention with C. elegans strains expressing human Kv4.3 for their activity is the same as the method described in WO 03/097682. The method for testing the compounds on wild-type C. elegans strains not expressing human Kv4.3 is the same as the method described in WO 00/63427. Briefly, UG1755 animals have been grown in large numbers and staged young adults (no or only few eggs inside the uterus) have been harvested on the day of screening. Approximately 125 animals in 80 μl buffer have been dispensed per well of a “U shaped 96-well compound plate The compound plate contained already compound material at a final concentration of 30 μM in 0.3% DMSO. After one hour incubation 10 μl of the fluorescent label Calcein AM (CAM) have been added to achieve a final concentration of 5 μM CAM and 0.8% DMSO. After another four hours of incubation at 20° C., the drinking of C. elegans animals (or the “reaction 8 measured by the uptake of CAM) has been stopped by adding 10 μl of a 60 μM ivermectin solution. The fluorescence intensity (counts per second) has been measured 40 minutes after adding ivermectin with the Wallac plate reader at a wavelength of 535 nm (after excitation at 485 nm).
The active compounds have been identified and confirmed by dose-response analysis. An EC50 has been calculated and the results are listed under Table 3. Dose-response curves have been obtained at concentrations of 30 μM. EC50 has been calculated using XLfit 2.09 software package.

The mark [1] stands for this setting: 2 μM, fraction, cell also prints %.

T1 sequence (P22460 whole entry): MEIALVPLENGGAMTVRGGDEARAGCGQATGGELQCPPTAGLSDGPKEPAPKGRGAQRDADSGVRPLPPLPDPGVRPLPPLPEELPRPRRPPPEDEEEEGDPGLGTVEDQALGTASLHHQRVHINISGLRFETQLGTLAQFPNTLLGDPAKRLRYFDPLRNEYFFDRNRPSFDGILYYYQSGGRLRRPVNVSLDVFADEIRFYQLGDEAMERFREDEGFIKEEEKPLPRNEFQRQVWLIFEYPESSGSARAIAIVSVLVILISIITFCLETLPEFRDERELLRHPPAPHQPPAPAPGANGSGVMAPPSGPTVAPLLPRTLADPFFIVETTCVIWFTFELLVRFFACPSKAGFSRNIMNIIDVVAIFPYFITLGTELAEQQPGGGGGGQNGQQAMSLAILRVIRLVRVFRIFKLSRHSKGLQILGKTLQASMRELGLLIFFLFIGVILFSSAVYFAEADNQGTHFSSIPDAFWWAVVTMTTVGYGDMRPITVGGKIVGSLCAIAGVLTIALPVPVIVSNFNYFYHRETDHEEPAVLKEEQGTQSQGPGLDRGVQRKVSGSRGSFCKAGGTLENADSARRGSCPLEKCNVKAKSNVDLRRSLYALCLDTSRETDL

With `Cc1nc(Sc2ccccc2)sc1C(=O)N[C@H]1CCC[C@@H]1OCc1ccccc1` [Compound 81, 4-methyl-2-phenylsulfanyl-thiazole-5-carboxylic acid ((1S,2S)-2-benzyloxycyclopent-1-yl) amide], the “Relative remaining current (mean after 8-10 min)” value on Kv1.5 potassium channel (1 μM) was found to be 44%.
Take `Cc1nc(Nc2ccc(Br)cc2)sc1C(=O)N[C@@H](C)c1ccc2ccccc2c1` [Compound 18, 2-(4-bromo-phenylamino)-4-methyl-thiazole-5-carboxylic acid (S)-1-(naphthalen-2-yl)ethyl amide]: on human Kv4.3, the “Ratio N2/Kv4.3” value was 2.4 and the concentration giving a half-maximal response (EC50) – broadly, the midpoint of the concentration-response curve – is 13.5 µM.
Take `Cc1nc(Nc2ccc(Cl)cc2)sc1C(=O)N[C@@H]1CCC[C@H]1OCc1ccccc1` [Compound 30, 2-(4-chloro-phenylamino)-4-methyl-thiazole-5-carboxylic acid (1R,2R)-2-(benzyloxycyclopent-1-yl) amide]: on human Kv4.3, the “Ratio N2/Kv4.3” value is listed as more than 6.4 and the EC50 was 9 µM.
As to `Cc1nc(Nc2ccc(Br)cc2)sc1C(=O)N[C@H](C)c1ccc2ccccc2c1` [Compound 19, 2-(4-bromo-phenylamino)-4-methyl-thiazole-5-carboxylic acid (R)-1-(naphthalen-2-yl)ethyl amide], at human Kv4.3, the “Ratio N2/Kv4.3” value was 4.7 and the EC50 is 7 µM.
Take `Cc1nc(Nc2cccc3cccnc23)sc1C(=O)N[C@H]1CCC[C@@H]1OCc1ccccc1` [Compound 94, 4-methyl-2-(quinolin-8-ylamino)-thiazole-5-carboxylic acid ((1S,2S)-2-benzyloxycyclopent-1-yl) amide]: the “Relative remaining current (mean after 8-10 min)” value on Kv1.5 potassium channel (1 μM) turned out to be 79%.
Same read-out and setting: the figure for `Cc1nc(Nc2ccc3occc3c2)sc1C(=O)N[C@H]1CCC[C@@H]1OCc1ccccc1` [Compound 126, 2-(benzofuran-5-ylamino)-4-methyl-thiazole-5-carboxylic acid ((1S,2S)-2-benzyloxycyclopent-1-yl) amide] is 86%.
As to `Cc1nc(Nc2ccc(F)cc2)sc1C(=O)N[C@H](C)c1ccc2ccccc2c1` [Compound 16, 2-(4-fluoro-phenylamino)-4-methyl-thiazole-5-carboxylic acid (R)-1-(naphthalen-2-yl)ethyl amide], on human Kv4.3, the “Ratio N2/Kv4.3” value is recorded as more than 1.8 and the EC50 is 32.1 µM.
Turning to `COc1ccccc1Nc1ccc(C(=O)N[C@H]2CCC[C@@H]2OCc2ccccc2)s1` [Compound 75, 2-(2-methoxy-phenylamino)-thiophene-5-carboxylic acid ((1S,2S)-2-benzyloxycyclopent-1-yl) amide], the “Relative remaining current (mean after 8-10 min)” value at Kv1.5 potassium channel (1 μM) stood at 77%.
On to `COc1ccccc1Nc1nc(C)c(C(=O)N[C@H]2CCC[C@@H]2OCc2ccccc2)s1` [Compound 68, 2-(2-methoxy-phenylamino)-4-methyl-thiazole-5-carboxylic acid (1S,2S)-2-(benzyloxycyclopent-1-yl) amide], for which, at Kv1.5 potassium channel (setting [1]), the “Relative remaining current (mean after 8-10 min)” value was 0.51 (51%) and the “Relative remaining current (mean after 5 min)” value is given as 0.66 (66%).
